# From patent US9365830B2, “Agents and methods for inhibiting human pluripotent stem cell growth” (VIACYTE, INC., priority 2010, dated 2016)
# Columns and labels:
# Type in all cases: cell-based, human
# [1] = tested on: pancreatic endoderm differentiations of hESCs; test: Suspension aggregate differentiation to pancreatic endoderm after Stage 1 treatment, Q-PCR; conditions: Stage 1 cultures treated with 0.1 μM Caffeic acid or 0.17 μM Ivermectin
# Protocol: FIGS. 10A-10I are bar graphs showing the relative gene expression levels of OCT4 (FIG. 10A), MIXL (FIG. 10B), HNF1B (FIG. 10C), HNF4A (FIG. 10D), PAX4 (FIG. 10E), NGN3 (FIG. 10F), NKX2.2 (FIG. 10G), NKX6.1 (FIG. 10H), and PTF1A (FIG. 10I) after treatment of suspension aggregate cell cultures at Stages 1 with DMSO (Control), 0.1 μM Caffeic acid or 0.17 μM Ivermectin agents. Untreated control samples were collected at d0 and d1 (left panel). Treated samples were collected at d2, d3, d5, d7, d9, d11, and d13. The columns for each day of the treated samples are (from left to right): DMSO, Caffeic acid, and Ivermectin. The cultures were differentiated to the end of Stage 4. The results from an untreated, pancreatic endoderm differentiation are shown on the right, with samples collected on days 0, 1, 2, 5, 8, 10 and 14.
# To further determine the effects of the above compounds (excluding those compounds that induced off-target differentiation), three selected compounds (chelerythrine chloride (FIGS. 5 & 6), caffeic acid and Ivermectin) were screened for effects on later stages of pancreatic differentiation, (such as Stages 2-5). Human ESCs were first differentiated through Stage 1 then to Stages 2 to 5 in suspension aggregate cultures similar to that above. Stage 1 cultures were treated with DMSO, caffeic acid or Ivermectin substantially as described above. Untreated control samples were collected at d0 (hESC) and d1 (FIG. 10, left panel), while treated samples were collected at days 2, 3, 5, 7, 9, 11 and 13 (FIG. 10 d2, d3, d5, d7, d9, d11 and d13 respectively). Gene expression levels in the collected samples were analyzed using Q-PCR and compared to the d0 (hESC) sample as well as qualified pancreatic endoderm (FIG. 10, right panel). The qualified pancreatic endoderm control consisted of about 50% pancreatic endoderm, about 46% endocrine cells and about 4% “other” cells as determined by flow cytometry. Neither caffeic acid nor Ivermectin affected survival, growth and/or proliferation of pancreatic endoderm differentiations. […] Typical gene expression levels for Stages 3, 4 and 5 cells were normal; for example, increased expression of NKX6.1 and PTF1A at Stage 4, pancreatic endoderm (FIGS. 10H and 10I), and of NGN3 and NKX2.2 at Stage 5, endocrine precursor and endocrine cells (FIGS. 10 F and 10G) was observed.
# [2] = tested on: undifferentiated hESCs growing in adherent culture; test: EC50 of cytotoxic effect on undifferentiated hESCs in adherent culture, real-time impedance assay; conditions: Homo sapiens, read-out: EC50 concentrations for hES cells (cytotoxic effect)
# Protocol: In summary, the final three (3) candidates identified from both the primary and secondary screens (EXAMPLE 1) and the full screen of the LOPAC1280™ collection (EXAMPLE 2) were Chelerythrine Chloride, Caffeic acid and Ivermectin. FIG. 11 lists the known or inferred mode(s) of action for these three compounds, as well as their structures. EC50 values for the respective cytotoxic effects on undifferentiated hESCs growing in adherent culture were determined using real-time impedance assays.
# (§1) Depletion of OCT4-positive cells during Stage 1 differentiation was examined using the plating assay described above. Stage 1 differentiations of hES cells were treated from day 1 to 2 with the candidate compounds as described in Example 2 (chelerythrine chloride, caffeic acid and Ivermectin), at their EC50 concentrations for hES cells. Plated untreated and DMSO-treated aggregates were indistinguishable, and both contained discrete clusters of OCT4-positive cells. See FIG. 13A top and bottom panels for a DMSO treated example. The intensity of OCT4-positive staining in differentiating aggregate cell cultures treated with DMSO (control) was equivalent to undifferentiated hES cells.
# [3] = tested on: OCT4-positive cells in Stage 1 differentiations of hES cells; test: Plating assay for depletion of OCT4-positive cells in Stage 1 suspension aggregates, OCT4 immunostaining
# Protocol: Human ES cell suspension aggregates were formed in rotational culture as described previously and differentiated through Stage 1 (definitive endoderm). About 20-30 aggregates were then plated per well in 4-well tissue culture dishes coated with MATRIGEL· diluted 1:200, and cultured for 24 hours in hESC medium (DMEM/F12, 10% XF-KSR, 10 ng/mL Activin A and 10 ng/mL Heregulin). This approach was intended to increase the contrast in OCT4 expression between undifferentiated hESCs and cells committed to differentiation. […] Stated in another way, mixed population cell cultures in hESC medium would potentially support expansion/proliferation of residual undifferentiated (hESCs), thereby show increased OCT4 gene expression, as compared to cells committed to differentiation, which would have decreased of OCT4 gene expression. Plated aggregates were immunostained for OCT4 protein and counterstained with DAPI, a nuclear stain (FIG. 12). The cell aggregates that were plated had flattened and spread out within a 24-hour period; while the centers of the aggregates were still domed. […] Brightly staining OCT4-positive cells were easily identified and distinguishable from the majority of OCT4 negative cells. OCT4-positive cells were generally found in clusters and most often within the domed area of a plated aggregate. […] Smaller aggregates residing in a larger aggregate may occur as a result of the initial stages of rotational culture, or the aggregation process, during which small clusters (primary aggregates) form initially. Aggregation of two or more primary aggregates likely leads to the formation of larger secondary aggregates, which can be 100-150 μm in diameter. Thus, it is possible that any single clusters of OCT4-positive cells exist at the center of a primary aggregate and resist differentiation. Such clusters would remain substantially undifferentiated and stain OCT4-positive. One hypothesis is that primary aggregates are specified to differentiation relative to their positioning in primary and secondary aggregates. For example, FIGS. 12A through 12E show a representative series of images, from small (primary) (e.g. FIGS. 12A and 12B) and larger (secondary) (e.g. FIGS. 12C-12E) plated aggregates containing OCT4-positive clusters (dark circles).
# as §1
# Additional experiments were performed using higher concentrations of compounds and extended effects of the compounds in cell culture plated aggregates in hESC medium for 24 or 72 hours before staining (FIGS. 15 and 16). […] Another group of Stage 1 differentiating cultures were processed in parallel, but treated with 10 μm chelerythrine chloride.
smiles,measurement,setting,value
"O=C(O)C=Cc1ccc(O)c(O)c1 [caffeic acid, 3,4-dihydroxycinnamic acid]","Typical gene expression levels for Stages 3, 4 and 5 cells (NKX6.1, PTF1A, NGN3, NKX2.2)",[1]; Q-PCR d2-d13,normal
same,"survival, growth and/or proliferation of pancreatic endoderm differentiations (pancreatic endoderm viability)",[1]; differentiated to end of Stage 4,did not affect pancreatic endoderm viability
same,EC50,[2],0.1 µM
same,size of clusters of OCT4-positive cells,"[3]; 5 or 10 μm caffeic acid, 24 hours, vs DMSO-treated (or untreated) controls",smaller in size
same,expansion of clusters of OCT4-positive cells,"[3]; 5 or 10 μm caffeic acid, 72 hours, vs DMSO treated control",did not expand substantially
same,size of OCT4-positive clusters,"[3]; another study, 0.1 μM caffeic acid, 24 hours after plating in hESC medium (FIG. 14, BG02)",even more substantial decrease
same,intensity for OCT4 staining,"[3]; treated day 1 to 2 of Stage 1 at EC50 concentration, plated 24 hours in hESC medium, vs untreated or DMSO",significantly decreased
